Assay results published in patent US8648112B2, “Therapeutic uses of urolithins” (The Regents of the University of California, priority 2006, dated 2014).

Legend:
[1] = test system: 22Rv1 prostate cancer cell line; assay: Antiproliferative cell assay (CellTiter-Glo), 22Rv1; format: cell-based, human; details: Homo sapiens, 22Rv1, 48 h, 48 h exposure, read-out: IC50 against prostate cancer cell line 22 Rv1
Description: (§1) Cell Culture Materials. The 22Rv1, DU145, LNCaP and PC3 prostate cancer cell lines were obtained from American Type Culture Collection (ATCC, Rockville, Md.). The LNCaP-AR and Hi-Myc cell lines were a kind donation by Dr. C. Sawyers (David Geffen School of Medicine, UCLA, Los Angeles, Calif.). DU145, 22Rv1, LNCaP, LNCaP-AR, and PC3 cells were grown in RPMI 1640; Hi-Myc cells were grown in Isecove's Modified Dulbecco's Medium. All media contained 10% fetal bovine serum (FBS) in the presence of 100 U/mL penicillin and 0.1 g/L streptomycin. RWPE-1 prostate cells were grown in Defined Keratinocyte Serum Free Medium (DKSFM) containing epidermal growth factor (EGF), insulin and fibroblast growth factor (FGF). Cells were incubated at 37° C. with 95% air and 5% CO2. All cells were maintained below passage 20 and used in experiments during the linear phase of growth.
(§2) Proliferation was measured utilizing the CellTiter-Glo® Luminescent Cell Viability Assay (Technical Bulletin #288, Promega Corp., Madison, Wis.). When added to cells, the assay reagent produces luminescence in the presence of ATP from viable cells. Cells were plated in 96-well plates at a density of 10,000 cells/well and incubated for 24 hours. Test samples were solubilized in DMSO by sonication, filter sterilized and diluted with media to the desired treatment concentration. Cells were treated with 100 μLcontrol media, vehicle control (DMSO<0.2% of total) or test samples and incubated for 48 h drug exposure duration at 6.25, 12.5, 25, 50 and 100 μg/mL concentrations. At the end of 48 h, plates were equilibrated at room temperature for 30 min; 100 μL of the assay reagent was added to each well and cell-lysis was induced on an orbital shaker for 2 min. Plates were incubated at room temperature for 10 min to stabilize the luminescence signal and results were read on an Orion Microplate Luminometer (Bertholds Detection Systems, Pforzheim, Germany). All plates had control wells containing medium without cells to obtain a value for background luminescence. Data are expressed as percentage of untreated cells (i.e. treatment value-blank/vehicle value-blank), mean±SE for three replications.

[2] = test system: DU145 prostate cancer cell line; assay: Antiproliferative cell assay (CellTiter-Glo), DU145; format: cell-based, human; details: Homo sapiens, DU-145, 48 h exposure, read-out: IC50 against prostate cancer cell line DU145
Description: as §1, §2

[3] = test system: Hi-Myc prostate cancer cell line; assay: Antiproliferative cell assay (CellTiter-Glo), Hi-Myc; format: cell-based; details: Hi-Myc (mouse), 48 h exposure, read-out: IC50 against prostate cancer cell line HiMyc
Description: as §1, §2

[4] = test system: LNCaP prostate cancer cell line; assay: Antiproliferative cell assay (CellTiter-Glo), LNCaP; format: cell-based, human; details: Homo sapiens, 48 h exposure, read-out: IC50 against prostate cancer cell line LNCaP
Description: as §1, §2

[5] = test system: LNCaP-AR prostate cancer cell line; assay: Antiproliferative cell assay (CellTiter-Glo), LNCaP-AR; format: cell-based, human; details: Homo sapiens, 48 h exposure, read-out: IC50 against prostate cancer cell line LNCap-AR
Description: as §1, §2

[6] = test system: PC3 prostate cancer cell line; assay: Antiproliferative cell assay (CellTiter-Glo), PC3; format: cell-based, human; details: Homo sapiens, 48 h exposure, read-out: IC50 against prostate cancer cell line PC3
Description: as §1, §2

22Rv1 cells = assay: Assessment of apoptosis (Cell Death Detection ELISA), 22Rv1; format: cell-based, human; details: 48 h, p=0.05
Description: (§3) Assessment of apoptosis. Apoptosis was assessed utilizing the Cell Death Detection ELISAPLUS Assay (Boehringer Mannheim, Indianapolis, Ind.). This assay is a photometric enzyme-linked immunoassay that quantitatively measures the internucleosomal degradation of DNA, which occurs during apoptosis. Specifically, the assay detects histone associated mono- and oligonucleosomes, which are indicators of apoptosis. Cells (22RV1, PC-3, LNCaP, LNCaP-AR), were plated in 60 mm dishes at a density of 100,000 cells/dish and allowed to attach for 24 hours. Cells were treated with vehicle control (100% DMSO; 0.3% final concentration), or urolithin B (0-50 μg/mL or 0-236 μM) for 48 hours. Following treatments, non-adherent cells were collected and pelleted at 200×g for ten minutes. The supernatant was discarded; the cell pellet was washed with cold CMF-PBS and re-centrifuged. […] Both live and dead cells were then counted via trypan blue exclusion (Pierce, Rockford, Ill.) and equal numbers of cells were added to the microtiter plate for all treatment groups and apoptosis assay was performed according to the manufacturer's instructions. Data are expressed as absorbance at 405 nm of each sample over vehicle controls as follows=treatment value-blank/vehicle value-blank.

PC3 cells = assay: Assessment of apoptosis (Cell Death Detection ELISA), PC3; format: cell-based, human; details: 48 h, p=0.05
Description: as §3

LNCaP cells = assay: Assessment of apoptosis (Cell Death Detection ELISA), LNCaP; format: cell-based, human; details: 48 h, p=0.01
Description: as §3

LNCaP-AR cells = assay: Assessment of apoptosis (Cell Death Detection ELISA), LNCaP-AR; format: cell-based, human; details: 48 h, p=0.01
Description: as §3

[7] = test system: human colon cancer cell line HCT-116; assay: Antiproliferative activity against colon cancer cells (CellTiter-Glo); format: cell-based; details: 100 μg/mL, 48 hrs
Description: (§4) EA and EA-metabolites (gallic and gallagic acids, urolithin B and methylated-urolithin A) were evaluated for antiproliferative activity against the human colon cancer cell line HCT-116. The cells were grown to a concentration of 10,000 cells per well in a 96 well format; and were then resuspended in medium containing vehicle control or the indicated compound: Ellagic acid, urolithin A, methyl urolithin A, or urolithin B, at a concentration of 100 μg/mL. The cells were incubated for 48 hrs, and the viability assayed by the CellTiter-Glo® Luminescent Cell Viability Assay (Technical Bulletin #288, Promega Corp., Madison, Wis.).

[8] = test system: human pancreatic cancer cell line ASPC-1; assay: Antiproliferative activity against pancreatic cancer cells (CellTiter-Glo), ASPC-1; format: cell-based; details: 100 μg/mL, 48 hrs
Description: as §4, with “pancreatic” for “colon”, “lines ASPC-1 and BXPC-3.” for “line HCT-116.”, “well;” for “well in a 96 well format;”, “containing the” for “containing”, “byCellTiter-Glo®” for “by the CellTiter-Glo®”

[9] = test system: human pancreatic cancer cell line BXPC-3; assay: Antiproliferative activity against pancreatic cancer cells (CellTiter-Glo), BXPC-3; format: cell-based; details: 100 μg/mL, 48 hrs
Description: as §4, with “pancreatic” for “colon”, “lines ASPC-1 and BXPC-3.” for “line HCT-116.”, “well;” for “well in a 96 well format;”, “containing the” for “containing”, “byCellTiter-Glo®” for “by the CellTiter-Glo®”

O=c1oc2cc(O)ccc2c2ccccc12 [Urolithin B, 3-hydroxy-6H-dibenzo[b,d]pyran-6-one]
IC50 [1]: 118 µM
IC50 [2]: 59.4 µM
IC50 [3]: 59.9 µM
IC50 [4]: 90.5 µM
IC50 [5]: 28.5 µM
IC50 [6]: 127 µM
concentration showing statistically significant pro-apoptotic effect (22Rv1 cells): 59 µM
concentration showing statistically significant pro-apoptotic effect (PC3 cells): 29.5 µM
concentration showing statistically significant pro-apoptotic effect (LNCaP cells): 118 µM
concentration showing statistically significant pro-apoptotic effect (LNCaP-AR cells): 59 µM
anti-proliferative activity, rank order [7]: urolithin A is the most active, then ellagic acid, urolithin B and methyl urolithin A
anti-proliferative activity, rank order [8]: urolithin A is the most active, then ellagic acid, urolithin B and methyl urolithin A
anti-proliferative activity, rank order [9]: urolithin A is the most active, then ellagic acid, urolithin B and methyl urolithin A
